# Experimental data: US20080014230A1, “Cosmetic compositions combining a C-glycoside derivative and an N-acylamino amide derivative” (L'OREAL, priority 2006, published 2008)
# Tested on: keratinocyte transglutamase (TGk) activity in normal human epidermal keratinocytes (NHEK) of R3KO15 type
# Assay: keratinocyte transglutamase (TGk) activity after prolonged contact of keratinocytes with the test composition
# Assay type: cell-based
# Settings: for Activity/μg: TGk activity relative to the amount of proteins, calcium-free medium; for %/blank: TGk activity, % of blank (−Ca)
# Procedure: The tests performed below use normal human epidermal keratinocytes (NHEK) of R3KO15 type obtained from breast surgery.
# The activity of a composition in accordance with the invention is tested with regard to these keratinocytes by assaying the keratinocyte transglutamase (TGk) activity after prolonged contact of the keratinocytes with the test composition, the increase in TGk activity sanctioning a stimulation of keratinocyte differentiation.
# The activity is tested in an SFM medium available from Invitrogen under the reference 17005034.
# Its composition is as follows: • EGF 0.25 ng/ml, • pituitary extract (PE) 25 μg/ml (Invitrogen 3700015), • gentamycin 25 μg/ml (Sigma G1397) • optionally supplemented with 1.5 mM final calcium chloride (Prolabo 22317297).
# Keratinocytes (R3KO15) are precultured in SFM1x medium in 96-well plates (one plate for the test, one for the protein assay and one for the MTT). After incubation for 24 hours at 37° C., the culture medium is removed and replaced with SFM medium, which is not supplemented (calcium-free blank) or supplemented with 1.5 mM final of calcium chloride and not containing (blank) or containing the products, mixed with the test or the references.
# After incubation for 48 hours at 37° C. and 5% CO2, the culture medium is removed and the cells are again treated and then incubated for 48 hours at 37° C.
# All the experimental conditions are performed in hexaplicate.
# The cell lawns are washed and then sonicated, on ice, in Tris/EDTA pH 8.0 buffer.
# The membrane TGk enzyme is extracted in the presence of Triton X-100 (incubation with stirring at 4° C.) and the TGk activity is then determined by measuring the covalent addition of tritiated putrescine at 2 μCi/ml final (Amersham TRK 414; 1.04 TBq/mmol, 28 Ci/mmol) to casein (acceptor protein, 2 mg/ml final), in a Tris 0.1 M, CaCl2 4 mM, EDTA 0.4 mM, DTT 5 mM, pH 8.3 buffer, for 2 hours at 37° C.
# The casein is precipitated by addition of 20% trichloroacetic acid (TCA) containing 1 mM putrescine and the precipitates are recovered on a Skatron filter and collector (extensive washing with 5% TCA, 0.1 mM putrescine and ethanol) and the dry filters are then counted by liquid scintillation.
# The proteins of each sample are assayed using the Dc Protein Assay kit (BioRad 500-0116) and according to the protocol recommended by the manufacturer.
# The results obtained are given in Table 1 below, the TGk activity being relative to the amount of proteins—calcium-free medium.
structure (smiles),measurement,setting,value
"CC(=O)N(c1cccc(C(F)(F)F)c1)C(C(=O)NCC(=O)O)C(C)C (centres unmarked) [N-acylamino amide, {2-[acetyl(3-trifluoromethyl-phenyl)amino]-3-methylbutyrylamino}acetic acid]",Activity/μg,0.04 mg/ml,114
same,Activity/μg,0.2 mg/ml,104
same,%/blank,0.04 mg/ml,91%
same,%/blank,0.2 mg/ml,82%
same,effect on the TGk activity (in words),tested at 0.2 mg/ml and 0.04 mg/ml,no significant effect
"CC1=C(/C=C/C(C)=C/C=C/C(C)=C/C(=O)O)C(C)(C)CCC1 [Retinoic acid, retinoic acid, reference compound]",Activity/μg,10^−7 M,111
same,%/blank,10^−7 M,88%
"CC(O)C[C@@H]1OC[C@@H](O)[C@H](O)[C@H]1O (stereo partly drawn) [C-glycoside, C-β-D-xylopyranoside-2-hydroxypropane]",Activity/μg,1 mM,171
same,Activity/μg,3 mM,210
same,%/blank,1 mM,136%
same,%/blank,3 mM,167%
